Results reported in ChEMBL document CHEMBL6092167, “Phosphorylation as an Effective Tool to Improve Stability and Reduce Toxicity of Antimicrobial Peptides” (J Med Chem, 2024).
Converted amounts (≈) assume the structure as drawn. Non-standard residues stand in square brackets, D forms with d. Residues, ends and D or L forms follow the SMILES beside them. Bip = N[C@@H](Cc1ccc(-c2ccccc2)cc1)C(=O)O; pY = N[C@@H](Cc1ccc(OP(=O)(O)O)cc1)C(=O)O; pT = C[C@@H](OP(=O)(O)O)[C@H](N)C(=O)O; 2Nal = N[C@@H](Cc1ccc2ccccc2c1)C(=O)O

Legend:
[1] = test system: Staphylococcus aureus; experiment: Antibacterial activity against methicillin resistant Staphylococcus aureus ATCC 33591 incubated for 18 to 24 hrs by broth microdilution method; format: functional; conditions: time 18-24 hrs
[2] = test system: Staphylococcus aureus; experiment: Antibacterial activity against methicillin resistant Staphylococcus aureus 48 incubated for 18 to 24 hrs by broth microdilution method; format: functional; conditions: time 18-24 hrs
[3] = test system: Staphylococcus aureus; experiment: Antibacterial activity against Staphylococcus aureus 794 incubated for 18 to 24 hrs by broth microdilution method; format: functional; conditions: time 18-24 hrs
[4] = test system: Escherichia coli; experiment: Antibacterial activity against Escherichia coli 780 incubated for 18 to 24 hrs by broth microdilution method; format: functional; conditions: time 18-24 hrs
[5] = test system: Escherichia coli; experiment: Antibacterial activity against Escherichia coli 850 incubated for 18 to 24 hrs by broth microdilution method; format: functional; conditions: time 18-24 hrs
[6] = test system: Pseudomonas aeruginosa; experiment: Antibacterial activity against Pseudomonas aeruginosa 119 incubated for 18 to 24 hrs by broth microdilution method; format: functional; conditions: time 18-24 hrs
[7] = test system: Staphylococcus aureus; experiment: Antibacterial activity against Staphylococcus aureus ATCC 25923 incubated for 18 to 24 hrs by broth microdilution method; format: functional; conditions: time 18-24 hrs
[8] = test system: Bacillus subtilis; experiment: Antibacterial activity against Bacillus subtilis ATCC 23857 incubated for 18 to 24 hrs by broth microdilution method; format: functional; conditions: time 18-24 hrs
[9] = test system: Escherichia coli; experiment: Antibacterial activity against Escherichia coli ATCC 25922 incubated for 18 to 24 hrs by broth microdilution method; format: functional; conditions: time 18-24 hrs
[10] = test system: Pseudomonas aeruginosa; experiment: Antibacterial activity against Pseudomonas aeruginosa ATCC 27853 incubated for 18 to 24 hrs by broth microdilution method; format: functional; conditions: time 18-24 hrs
[11] = test system: Klebsiella pneumoniae; experiment: Antibacterial activity against Klebsiella pneumoniae ATCC 700603 incubated for 18 to 24 hrs by broth microdilution method; format: functional; conditions: time 18-24 hrs
[12] = test system: Acinetobacter baumannii; experiment: Antibacterial activity against Acinetobacter baumannii ATCC 19606 incubated for 18 to 24 hrs by broth microdilution method; format: functional; conditions: time 18-24 hrs
[13] = Hemolytic activity in mouse erythrocyte incubated for 1 hr by microplate reader assay; format: toxicity, cell-based
[14] = Cytotoxicity against HEK293T cells incubated for 1 hr by fluorescence based microplate reader assay; format: toxicity, cell-based, HEK-293T; conditions: human

Structure (SMILES)	MIC [1]	MIC [2]	MIC [3]	MIC [4]	MIC [5]	MIC [6]	MIC [7]	MIC [8]	MIC [9]	MIC [10]	MIC [11]	MIC [12]	MHC [13]	CC50 at 1 h [14]
CC(C)C[C@H](NC(=O)[C@H](CC(C)C)NC(=O)[C@@H](NC(=O)[C@H](CCCCN)NC(=O)[C@H](Cc1ccc(-c2ccccc2)cc1)NC(=O)[C@H](CCCNC(=N)N)NC(=O)[C@H](CCCCN)NC(=O)[C@H](CC(C)C)NC(=O)[C@H](CC(C)C)NC(=O)CN)[C@@H](C)O)C(N)=O (H-GLLKR[Bip]KTLL-NH2)	8 µM (≈ 10.1 µg/mL)	8 µM (≈ 10.1 µg/mL)	8 µM (≈ 10.1 µg/mL)	8 µM (≈ 10.1 µg/mL)	8 µM (≈ 10.1 µg/mL)	16 µM (≈ 20.2 µg/mL)	16 µM (≈ 20.2 µg/mL)	4 µM (≈ 5.05 µg/mL)	8 µM (≈ 10.1 µg/mL)	4 µM (≈ 5.05 µg/mL)	8 µM (≈ 10.1 µg/mL)	16 µM (≈ 20.2 µg/mL)	145.56 µM	127 µM
CC(C)C[C@H](NC(=O)[C@H](CC(C)C)NC(=O)[C@H](Cc1ccc(O)cc1)NC(=O)[C@H](CCCCN)NC(=O)[C@H](Cc1ccc(-c2ccccc2)cc1)NC(=O)[C@H](CCCNC(=N)N)NC(=O)[C@H](CCCCN)NC(=O)[C@H](CC(C)C)NC(=O)[C@H](CC(C)C)NC(=O)CN)C(N)=O (H-GLLKR[Bip]KYLL-NH2)	8 µM (≈ 10.6 µg/mL)	8 µM (≈ 10.6 µg/mL)	8 µM (≈ 10.6 µg/mL)	8 µM (≈ 10.6 µg/mL)	8 µM (≈ 10.6 µg/mL)	8 µM (≈ 10.6 µg/mL)	8 µM (≈ 10.6 µg/mL)	4 µM (≈ 5.3 µg/mL)	8 µM (≈ 10.6 µg/mL)	8 µM (≈ 10.6 µg/mL)	8 µM (≈ 10.6 µg/mL)	16 µM (≈ 21.2 µg/mL)	99.53 µM	82.3 µM
CC(C)C[C@H](NC(=O)[C@H](CC(C)C)NC(=O)[C@@H](NC(=O)[C@H](CCCCN)NC(=O)[C@H](Cc1ccc(-c2ccccc2)cc1)NC(=O)[C@H](CCCNC(=N)N)NC(=O)[C@H](CCCCN)NC(=O)[C@H](CC(C)C)NC(=O)[C@H](CC(C)C)NC(=O)CN)[C@@H](C)OP(=O)(O)O)C(N)=O (H-GLLKR[Bip]K[pT]LL-NH2)	128 µM (≈ 172 µg/mL)	128 µM (≈ 172 µg/mL)	32 µM (≈ 43 µg/mL)	32 µM (≈ 43 µg/mL)	64 µM (≈ 86 µg/mL)	128 µM (≈ 172 µg/mL)	128 µM (≈ 172 µg/mL)	32 µM (≈ 43 µg/mL)	64 µM (≈ 86 µg/mL)	64 µM (≈ 86 µg/mL)	128 µM (≈ 172 µg/mL)	64 µM (≈ 86 µg/mL)	> 256 µM	131 µM
CC(C)C[C@H](NC(=O)[C@H](CC(C)C)NC(=O)[C@H](Cc1ccc(OP(=O)(O)O)cc1)NC(=O)[C@H](CCCCN)NC(=O)[C@H](Cc1ccc(-c2ccccc2)cc1)NC(=O)[C@H](CCCNC(=N)N)NC(=O)[C@H](CCCCN)NC(=O)[C@H](CC(C)C)NC(=O)[C@H](CC(C)C)NC(=O)CN)C(N)=O (H-GLLKR[Bip]K[pY]LL-NH2)	8 µM (≈ 11.2 µg/mL)	8 µM (≈ 11.2 µg/mL)	8 µM (≈ 11.2 µg/mL)	16 µM (≈ 22.5 µg/mL)	16 µM (≈ 22.5 µg/mL)	32 µM (≈ 45 µg/mL)	16 µM (≈ 22.5 µg/mL)	8 µM (≈ 11.2 µg/mL)	8 µM (≈ 11.2 µg/mL)	32 µM (≈ 45 µg/mL)	16 µM (≈ 22.5 µg/mL)	8 µM (≈ 11.2 µg/mL)	131.69 µM	110 µM
CC(C)C[C@H](NC(=O)[C@H](CC(C)C)NC(=O)[C@H](Cc1ccc(OP(=O)(O)O)cc1)NC(=O)[C@H](CCCCN)NC(=O)[C@H](CC(C)C)NC(=O)[C@H](CCCNC(=N)N)NC(=O)[C@H](CCCCN)NC(=O)[C@H](Cc1c[nH]c2ccccc12)NC(=O)[C@H](CC(C)C)NC(=O)CN)C(N)=O (H-GLWKRLK[pY]LL-NH2)	16 µM (≈ 21.9 µg/mL)	16 µM (≈ 21.9 µg/mL)	8 µM (≈ 10.9 µg/mL)	8 µM (≈ 10.9 µg/mL)	16 µM (≈ 21.9 µg/mL)	64 µM (≈ 87.6 µg/mL)	16 µM (≈ 21.9 µg/mL)	8 µM (≈ 10.9 µg/mL)	8 µM (≈ 10.9 µg/mL)	32 µM (≈ 43.8 µg/mL)	16 µM (≈ 21.9 µg/mL)	8 µM (≈ 10.9 µg/mL)	268.04 µM	148 µM
CC(C)C[C@H](NC(=O)[C@H](CC(C)C)NC(=O)[C@@H](NC(=O)[C@H](CCCCN)NC(=O)[C@H](CC(C)C)NC(=O)[C@H](CCCNC(=N)N)NC(=O)[C@H](CCCCN)NC(=O)[C@H](Cc1ccc2ccccc2c1)NC(=O)[C@H](CC(C)C)NC(=O)CN)[C@@H](C)O)C(N)=O (H-GL[2Nal]KRLKTLL-NH2)	8 µM (≈ 9.9 µg/mL)	8 µM (≈ 9.9 µg/mL)	8 µM (≈ 9.9 µg/mL)	8 µM (≈ 9.9 µg/mL)	8 µM (≈ 9.9 µg/mL)	8 µM (≈ 9.9 µg/mL)	8 µM (≈ 9.9 µg/mL)	8 µM (≈ 9.9 µg/mL)	8 µM (≈ 9.9 µg/mL)	8 µM (≈ 9.9 µg/mL)	8 µM (≈ 9.9 µg/mL)	8 µM (≈ 9.9 µg/mL)	154.3 µM	111 µM
CC(C)C[C@H](NC(=O)[C@H](CC(C)C)NC(=O)[C@H](Cc1ccc(O)cc1)NC(=O)[C@H](CCCCN)NC(=O)[C@H](CC(C)C)NC(=O)[C@H](CCCNC(=N)N)NC(=O)[C@H](CCCCN)NC(=O)[C@H](Cc1ccc2ccccc2c1)NC(=O)[C@H](CC(C)C)NC(=O)CN)C(N)=O (H-GL[2Nal]KRLKYLL-NH2)	8 µM (≈ 10.4 µg/mL)	8 µM (≈ 10.4 µg/mL)	8 µM (≈ 10.4 µg/mL)	8 µM (≈ 10.4 µg/mL)	8 µM (≈ 10.4 µg/mL)	8 µM (≈ 10.4 µg/mL)	8 µM (≈ 10.4 µg/mL)	4 µM (≈ 5.2 µg/mL)	8 µM (≈ 10.4 µg/mL)	8 µM (≈ 10.4 µg/mL)	8 µM (≈ 10.4 µg/mL)	8 µM (≈ 10.4 µg/mL)	78.09 µM	61.5 µM
CC(C)C[C@H](NC(=O)[C@H](CC(C)C)NC(=O)[C@@H](NC(=O)[C@H](CCCCN)NC(=O)[C@H](CC(C)C)NC(=O)[C@H](CCCNC(=N)N)NC(=O)[C@H](CCCCN)NC(=O)[C@H](Cc1ccc2ccccc2c1)NC(=O)[C@H](CC(C)C)NC(=O)CN)[C@@H](C)OP(=O)(O)O)C(N)=O (H-GL[2Nal]KRLK[pT]LL-NH2)	128 µM (≈ 169 µg/mL)	128 µM (≈ 169 µg/mL)	64 µM (≈ 84.3 µg/mL)	32 µM (≈ 42.2 µg/mL)	64 µM (≈ 84.3 µg/mL)	64 µM (≈ 84.3 µg/mL)	128 µM (≈ 169 µg/mL)	32 µM (≈ 42.2 µg/mL)	64 µM (≈ 84.3 µg/mL)	32 µM (≈ 42.2 µg/mL)	128 µM (≈ 169 µg/mL)	64 µM (≈ 84.3 µg/mL)	> 256 µM	131 µM
CC(C)C[C@H](NC(=O)[C@H](CC(C)C)NC(=O)[C@H](Cc1ccc(OP(=O)(O)O)cc1)NC(=O)[C@H](CCCCN)NC(=O)[C@H](CC(C)C)NC(=O)[C@H](CCCNC(=N)N)NC(=O)[C@H](CCCCN)NC(=O)[C@H](Cc1ccc2ccccc2c1)NC(=O)[C@H](CC(C)C)NC(=O)CN)C(N)=O (H-GL[2Nal]KRLK[pY]LL-NH2)	8 µM (≈ 11 µg/mL)	8 µM (≈ 11 µg/mL)	8 µM (≈ 11 µg/mL)	16 µM (≈ 22.1 µg/mL)	8 µM (≈ 11 µg/mL)	32 µM (≈ 44.1 µg/mL)	8 µM (≈ 11 µg/mL)	8 µM (≈ 11 µg/mL)	8 µM (≈ 11 µg/mL)	16 µM (≈ 22.1 µg/mL)	8 µM (≈ 11 µg/mL)	8 µM (≈ 11 µg/mL)	164.57 µM	128 µM
CC(C)C[C@H](NC(=O)[C@H](CC(C)C)NC(=O)[C@@H](NC(=O)[C@H](CCCCN)NC(=O)[C@H](CC(C)C)NC(=O)[C@H](CCCNC(=N)N)NC(=O)[C@H](CCCCN)NC(=O)[C@H](Cc1ccc(-c2ccccc2)cc1)NC(=O)[C@H](CC(C)C)NC(=O)CN)[C@@H](C)O)C(N)=O (H-GL[Bip]KRLKTLL-NH2)	8 µM (≈ 10.1 µg/mL)	8 µM (≈ 10.1 µg/mL)	8 µM (≈ 10.1 µg/mL)	8 µM (≈ 10.1 µg/mL)	8 µM (≈ 10.1 µg/mL)	8 µM (≈ 10.1 µg/mL)	8 µM (≈ 10.1 µg/mL)	8 µM (≈ 10.1 µg/mL)	8 µM (≈ 10.1 µg/mL)	8 µM (≈ 10.1 µg/mL)	8 µM (≈ 10.1 µg/mL)	8 µM (≈ 10.1 µg/mL)	47.48 µM	76.4 µM
